Counter-ions that a name gives are not always drawn. Numbered stars: 1 amine (or outer) side, 2 acyl side, 3 side chain; on linkers, the order of the positions; unused ones are H or OH. Bridge positions count the residues as written; N and C are the ends. Square brackets hold non-standard residues; d marks the D form. Peptide text beside a SMILES is read from it. * marks the point of attachment. pTerphenylCO(4''-OnC5H11) = CCCCCOc1ccc(-c2ccc(-c3ccc(C(=O)*)cc3)cc2)cc1; Orn(4R-OH,5R-OH) = O=C([C@H](C[C@@H](O)[C@@H](O)N[*:3])N[*:1])[*:2]; hTyr(3S-OH,4S-OH) = N[C@H](C(=O)O)[C@H](O)[C@@H](O)c1ccc(O)cc1; Pro(3S-OH,4S-Me) = C[C@H]1CN[C@H](C(=O)O)[C@H]1O; Hyp = O=C(O)[C@@H]1C[C@@H](O)CN1
These compounds were tested against SARS-CoV-2 Mac1 (Severe acute respiratory syndrome coronavirus 2, UniProt P0DTD1) (assay: biochemical). Conditions: 100 µM; inhibitor.

**Q.** With `COc1ccc(C[C@@H](C)NC[C@H](O)c2ccc(O)c(NC=O)c2)cc1` [Arformoterol Tartrate] as the compound, how does the “%inhibition” value read?
**A.** The value was 8.751%.

**Q.** For `CC1CNc2c(cccc2S(=O)(=O)N[C@@H](CCCNC(=N)N)C(=O)N2CC[C@@H](C)C[C@@H]2C(=O)O)C1` (some centres unmarked) [Argatroban Monohydrate], which “%inhibition” value is on record?
**A.** The value was 0%.

**Q.** `CC1CNc2c(cccc2S(=O)(=O)N[C@@H](CCCNC(=N)N)C(=O)N2CC[C@@H](C)C[C@@H]2C(=O)O)C1` (some centres unmarked) [Argatroban] was tested. Which “%inhibition” value did it give?
**A.** Its value is 4.667%.

**Q.** `CC(=O)Oc1ccccc1C(=O)O` [Aspirin] was tested. Which “%inhibition” value did it give?
**A.** The value was 26.28%.

**Q.** How did the “%inhibition” value turn out when `COc1ccc(C[C@@H]2c3cc(OC)c(OC)cc3CC[N@+]2(C)CCC(=O)OCCCCCOC(=O)CC[N@@+]2(C)CCc3cc(OC)c(OC)cc3[C@H]2Cc2ccc(OC)c(OC)c2)cc1OC` [Atracurium Besylate] was run?
**A.** The value was 4.976%.

**Q.** How did the “%inhibition” value turn out when `CC[C@H]1OC(=O)[C@H](C)[C@@H](O[C@H]2C[C@@](C)(OC)[C@@H](O)[C@H](C)O2)[C@H](C)[C@@H](O[C@@H]2O[C@H](C)C[C@H](N(C)C)[C@H]2O)[C@](C)(O)C[C@@H](C)CN(C)[C@H](C)[C@@H](O)[C@]1(C)O` [Azithromycin Dihydrate] was run?
**A.** Its value is 2.079%.

**Q.** `CC[C@H]1OC(=O)[C@H](C)[C@@H](O[C@H]2C[C@@](C)(OC)[C@@H](O)[C@H](C)O2)[C@H](C)[C@@H](O[C@@H]2O[C@H](C)C[C@H](N(C)C)[C@H]2O)[C@](C)(O)C[C@@H](C)CN(C)[C@H](C)[C@@H](O)[C@]1(C)O` [Azithromycin] was tested. Which “%inhibition” value did it give?
**A.** Its value is 5.483%.

Same assay, conditions: read-out: %inhibition

**Q.** With `CCCCCOc1ccc(-c2ccc(-c3ccc(C(=O)N[C@H]4C[C@@H](O)[C@@H](O)NC(=O)[C@@H]5[C@@H](O)[C@@H](C)CN5C(=O)[C@H]([C@@H](C)O)NC(=O)[C@H]([C@H](O)[C@@H](O)c5ccc(O)cc5)NC(=O)[C@@H]5C[C@@H](O)CN5C(=O)[C@H]([C@@H](C)O)NC4=O)cc3)cc2)cc1` [Anidulafungin (LY303366)] ({pTerphenylCO(4''-OnC5H11)}-[Orn(4R-OH,5R-OH)]T[Hyp][hTyr(3S-OH,4S-OH)]T[Pro(3S-OH,4S-Me)]; lactam 1-C) as the compound, how does the inhibition at 100 µM read?
**A.** The inhibition at 100 µM was 6.34%.

**Q.** How did the inhibition at 100 µM turn out when `COc1ccc(C(=O)N2CCCC2=O)cc1` [Aniracetam] was run?
**A.** The inhibition at 100 µM was 0%.

**Q.** Which inhibition at 100 µM does the source give for `COc1ccc(C2C(=O)c3ccccc3C2=O)cc1` [Anisindione] here?
**A.** Its inhibition at 100 µM is 2.26%.

**Q.** Which inhibition at 100 µM does the source give for `CCCC(CCC)C(=O)O[C@H]1C[C@H]2CC[C@@H](C1)[N+]2(C)C` [Anisotropine Methylbromide] here?
**A.** The inhibition at 100 µM was 5.8%.

**Q.** With `Cc1cc(=O)n(-c2ccccc2)n1C` [Antipyrine] as the compound, how does the inhibition at 100 µM read?
**A.** Its inhibition at 100 µM is 8.75%.

**Q.** With `N#CC1(c2ccc(NC(=O)c3cccnc3NCc3ccncc3)cc2)CCCC1` [Apatinib?mesylate] as the compound, how does the inhibition at 100 µM read?
**A.** Its inhibition at 100 µM is 0%.

**Q.** How did the inhibition at 100 µM turn out when `COc1ccc(-n2nc(C(N)=O)c3c2C(=O)N(c2ccc(N4CCCCC4=O)cc2)CC3)cc1` [Apixaban] was run?
**A.** The inhibition at 100 µM was 0%.

**Q.** How did the inhibition at 100 µM turn out when `CCOc1cc([C@@H](CS(C)(=O)=O)N2C(=O)c3cccc(NC(C)=O)c3C2=O)ccc1OC` [Apremilast (CC-10004)] was run?
**A.** The inhibition at 100 µM was 0%.

**Q.** For `C[C@@H](O[C@H]1OCCN(Cc2n[nH]c(=O)[nH]2)[C@H]1c1ccc(F)cc1)c1cc(C(F)(F)F)cc(C(F)(F)F)c1` [Aprepitant], which inhibition at 100 µM is on record?
**A.** Its inhibition at 100 µM is 10.1%.

**Q.** For `COC(=O)C1=CCCN(C)C1` [Arecoline HBr], which inhibition at 100 µM is on record?
**A.** The inhibition at 100 µM was 3.01%.

**Q.** With `CO[C@H]1O[C@@H]2O[C@@]3(C)CC[C@H]4[C@H](C)CC[C@@H]([C@H]1C)[C@@]24OO3` [Artemether] as the compound, how does the inhibition at 100 µM read?
**A.** Its inhibition at 100 µM is 0%.

**Q.** With `C[C@@H]1CC[C@H]2[C@@H](C)C(=O)O[C@@H]3O[C@@]4(C)CC[C@@H]1[C@]32OO4` [Artemisinin] as the compound, how does the inhibition at 100 µM read?
**A.** The inhibition at 100 µM was 10.9%.

**Q.** For `C[C@H]1[C@H](OC(=O)CCC(=O)O)O[C@@H]2O[C@@]3(C)CC[C@H]4[C@H](C)CC[C@@H]1[C@@]24OO3` [Artesunate], which inhibition at 100 µM is on record?
**A.** Its inhibition at 100 µM is 0%.

**Q.** Which inhibition at 100 µM does the source give for `CCCNC(C)C(=O)Nc1c(C)csc1C(=O)OC` (centres unmarked) [Articaine HCl] here?
**A.** Its inhibition at 100 µM is 0%.

**Q.** `COC(=O)[C@H](Cc1ccccc1)NC(=O)[C@@H](N)CC(=O)O` [Aspartame] (H-Asp-Phe-OMe) was tested. Which inhibition at 100 µM did it give?
**A.** The inhibition at 100 µM was 0%.

**Q.** For `C=C[C@@H]1C[C@]1(NC(=O)[C@@H]1C[C@@H](Oc2ncc(OC)c3ccc(Cl)cc23)CN1C(=O)[C@@H](NC(=O)OC(C)(C)C)C(C)(C)C)C(=O)NS(=O)(=O)C1CC1` [Asunaprevir], which inhibition at 100 µM is on record?
**A.** The inhibition at 100 µM was 0%.

**Q.** Which inhibition at 100 µM does the source give for `COC(=O)N[C@H](C(=O)N[C@@H](Cc1ccccc1)[C@@H](O)CN(Cc1ccc(-c2ccccn2)cc1)NC(=O)[C@@H](NC(=O)OC)C(C)(C)C)C(C)(C)C` [Atazanavir Sulfate] here?
**A.** Its inhibition at 100 µM is 0%.

**Q.** With `CC(C)NCC(O)COc1ccc(CC(N)=O)cc1` (centres unmarked) [Atenolol] as the compound, how does the inhibition at 100 µM read?
**A.** The inhibition at 100 µM was 0%.

**Q.** Which inhibition at 100 µM does the source give for `CCC1(c2c[nH]cn2)Cc2ccccc2C1` [Atipamezole hydrochloride] here?
**A.** The inhibition at 100 µM was 0%.

**Q.** Which inhibition at 100 µM does the source give for `CNCC[C@@H](Oc1ccccc1C)c1ccccc1` [Atomoxetine HCl] here?
**A.** Its inhibition at 100 µM is 0%.

**Q.** For `CC(C)c1c(C(=O)Nc2ccccc2)c(-c2ccccc2)c(-c2ccc(F)cc2)n1CC[C@@H](O)C[C@@H](O)CC(=O)O` [Atorvastatin Calcium], which inhibition at 100 µM is on record?
**A.** The inhibition at 100 µM was 0%.

**Q.** `O=C1C(O)=C([C@H]2CC[C@H](c3ccc(Cl)cc3)CC2)C(=O)c2ccccc21` [Atovaquone] was tested. Which inhibition at 100 µM did it give?
**A.** Its inhibition at 100 µM is 23.4%.

**Q.** With `NC(=O)[C@@H](CCC(F)(F)F)N(Cc1ccc(-c2ncon2)cc1F)S(=O)(=O)c1ccc(Cl)cc1` [Avagacestat (BMS-708163)] as the compound, how does the inhibition at 100 µM read?
**A.** The inhibition at 100 µM was 0%.

**Q.** With `COc1ccc(CNc2nc(N3CCC[C@H]3CO)ncc2C(=O)NCc2ncccn2)cc1Cl` [Avanafil] as the compound, how does the inhibition at 100 µM read?
**A.** The inhibition at 100 µM was 0%.

**Q.** `NC(=O)[C@@H]1CC[C@@H]2CN1C(=O)N2OS(=O)(=O)O` [Avibactam sodium] was tested. Which inhibition at 100 µM did it give?
**A.** Its inhibition at 100 µM is 0%.

**Q.** How did the inhibition at 100 µM turn out when `COc1ccc(C(=O)CC(=O)c2ccc(C(C)(C)C)cc2)cc1` [Avobenzone] was run?
**A.** Its inhibition at 100 µM is 26.5%.

**Q.** `CNC(=O)c1ccccc1Sc1ccc2c(/C=C/c3ccccn3)n[nH]c2c1` [Axitinib] was tested. Which inhibition at 100 µM did it give?
**A.** The inhibition at 100 µM was 59.3%.

**Q.** With `Nc1ncn([C@@H]2O[C@H](CO)[C@@H](O)[C@H]2O)c(=O)n1` [Azacitidine] as the compound, how does the inhibition at 100 µM read?
**A.** The inhibition at 100 µM was 32.2%.

**Q.** How did the inhibition at 100 µM turn out when `OC(c1ccccc1)(c1ccccc1)C1CCNCC1` [Azacyclonol] was run?
**A.** Its inhibition at 100 µM is 0%.

**Q.** How did the inhibition at 100 µM turn out when `O=C(CCCN1CCN(c2ccccn2)CC1)c1ccc(F)cc1` [Azaperone] was run?
**A.** Its inhibition at 100 µM is 22.5%.

**Q.** With `CN1C(=O)COc2c(C(=O)NC3CN4CCC3CC4)cc(Cl)cc21` (centres unmarked) [Azasetron HCl] as the compound, how does the inhibition at 100 µM read?
**A.** Its inhibition at 100 µM is 0%.

**Q.** For `CN1CCC(=C2c3ccccc3CCc3cccnc32)CC1` [Azatadine dimaleate], which inhibition at 100 µM is on record?
**A.** Its inhibition at 100 µM is 0%.

**Q.** How did the inhibition at 100 µM turn out when `Cn1cnc([N+](=O)[O-])c1Sc1ncnc2[nH]cnc12` [Azathioprine] was run?
**A.** The inhibition at 100 µM was 18.9%.

**Q.** For `O=C(O)CCCCCCCC(=O)O` [Azelaic acid], which inhibition at 100 µM is on record?
**A.** The inhibition at 100 µM was 0%.

**Q.** Which inhibition at 100 µM does the source give for `CN1CCCC(n2nc(Cc3ccc(Cl)cc3)c3ccccc3c2=O)CC1` (centres unmarked) [Azelastine HCl] here?
**A.** The inhibition at 100 µM was 20.2%.

**Q.** How did the inhibition at 100 µM turn out when `CC1=C(C(=O)OC(C)C)C(c2cccc([N+](=O)[O-])c2)C(C(=O)OC2CN(C(c3ccccc3)c3ccccc3)C2)=C(N)N1` (centres unmarked) [Azelnidipine] was run?
**A.** The inhibition at 100 µM was 12.9%.

**Q.** `CCOc1nc2cccc(C(=O)OCc3oc(=O)oc3C)c2n1Cc1ccc(-c2ccccc2-c2noc(=O)[nH]2)cc1` [Azilsartan Medoxomil] was tested. Which inhibition at 100 µM did it give?
**A.** The inhibition at 100 µM was 9.53%.

**Q.** Which inhibition at 100 µM does the source give for `CCOc1nc2cccc(C(=O)O)c2n1Cc1ccc(-c2ccccc2-c2noc(=O)[nH]2)cc1` [Azilsartan] here?
**A.** Its inhibition at 100 µM is 16.1%.

**Q.** Which inhibition at 100 µM does the source give for `CC1(C)S[C@@H]2[C@H](NC(=O)[C@H](NC(=O)N3CCNC3=O)c3ccccc3)C(=O)N2[C@H]1C(=O)O` [Azlocillin sodium salt] here?
**A.** Its inhibition at 100 µM is 0%.

**Q.** `C[C@H]1[C@H](NC(=O)/C(=N\OC(C)(C)C(=O)O)c2csc(N)n2)C(=O)N1S(=O)(=O)O` [Aztreonam] was tested. Which inhibition at 100 µM did it give?
**A.** The inhibition at 100 µM was 11.7%.

Reference: article doi:[…]/2021.10.07.463234v2 (biorxiv, 2021)
